In one experiment the test system is onion. As to the kind of experiment: High temperature stress resistance of onion via allantoin application (Experiment 2). The class given is in vivo, onion (variety: Neoearth). To be noted: for viability 3 days after the heat shock treatment: 1 mM allantoin 40 ml/pot 6 days after sowing. The procedure: (§1) A 5-cm polypot was mounted on a balance dish BD-2 (AS ONE Corporation), 70 ml of vermiculite (Protoleaf Inc.) was introduced thereinto, 80 ml of culture soil (TAKII & CO., LTD.) was further introduced thereinto, 3 seeds of onion (variety: Neoearth; TAKII & CO., LTD.) were sowed at 3 positions, and 20 ml of vermiculite was further introduced thereinto, so as to cover the soil. Thereafter, 50 ml of tap water was supplied to the balance dish two times. The polypot (together with the balance dish) was mounted on a bat, and the resultant was then introduced into an incubator at 22° C. and 10,000 Lux for a light period of 12 hours and a dark period of 12 hours, so as to initiate cultivation. The day on which cultivation was initiated was designated as Day 0 after sowing. Germination was observed 5 days after sowing. While leaving 3 plants in each pot (i.e., a plant in each position), other plants were removed therefrom 6 days after sowing.
Tap water or an aqueous solution of 1 mM allantoin was applied to each test group (40 ml/pot) 6 days after sowing (hereafter, referred to as the “water treatment group” or the “allantoin treatment group,” respectively). Tap water was applied to all the pots (40 ml/pot) 11 days after sowing. The pots mounted on the bats were introduced into the incubator 13 days after sowing (at the 2-true-leaf stage in the case of onions), and the plants were exposed to high temperature stress at 45° C. for 1 hour, 1.5 hours, and 2 hours. Soil in the pots was sufficiently humidified before and after high temperature stress application. After the completion of the high temperature stress treatment, the temperature in the incubator was cooled to 22° C., and cultivation was continued. Water was supplied 2 days after the heat shock treatment (40 ml/pot). Thereafter, water was supplied in an amount of 40 ml per pot at intervals of 2 days.
(§2) The “viability” indicates the proportion of the number of survived plants relative to the number of plants subjected to the heat shock treatment. The viability was calculated by regarding plants that would no longer grow (i.e., the plants with the youngest leaves suffering from physical damage, such as whitening, withering, or curling of leaves) as plants that are not survived.

The next experiment relates to rice (Koshihikari). As to the kind of experiment: Leaf Area Index of rice in paddy field after allantoin application to seedlings (Experiment 9). Conditions: for LAI (Leaf Area Index): 1 mM allantoin 3 L per nursery box on Day 26 after sowing, two plant bodies. The class given is in vivo. The procedure:
A 1 mM allantoin aqueous solution or water was applied in an amount of 3 L each to the seedlings of rice (Koshihikari) on Day 26 after sowing (the size of a nursery box: 280×580×28 (mm) (depth×width×height)). A total of the applied dose of allantoin per unit area, which was applied for a single application in Experiment 9, was 3.0 g/m^2 (1.05 g/m^2 relative to allantoin nitrogen) in the 1 mM allantoin group.
Twelve hours after the application, the seedlings were planted in a paddy field, and were then allowed to grow for 55 days and for 63 days. Thereafter, using a leaf area measurement apparatus LAI-2200 (MEIWAFOSIS CO., LTD.), Leaf Area Index (LAI) which indicates the leaf area under conditions in which the plant still grows in the field, was non-destructively measured. LAI was obtained from two plant bodies in each of the allantoin group and the water group (n=2).

In experiment [1] the test system is DREB2A (AGI code: AT5G05410). Description: DREB2A gene expression, quantitative PCR, cultivation in allantoin-containing medium (Experiment 5). The class given is in vivo, Arabidopsis thaliana. Conditions: 1 mM allantoin in ½ MS solid medium, 14 days, leaves and stems, reference gene ACT2. Here is the method: (§3) Seeds of wild-type Arabidopsis thaliana line (Columbia-0) were sterilized in 2.5% (v/v) sodium hypochlorite, sowed in the ½ MS solid medium described in Experiment 1 (Table 1) (the medium was supplemented with 1 mM allantoin; allantoin was not added to the control group: a deep petri dish with a diameter of 90 mm and a height of 20 mm), and then allowed to grow under long-day conditions (in an incubator at 5,000 Lux, a light period of 16 hours and a dark period of 8 hours, 22° C.) for 14 days. Using a commercialized kit, RNA extraction from leaves and stems of Arabidopsis thaliana (NucleoSpin RNAII, MACHEREY-NAGEL), reverse transcription (ReverTra Ace qPCR RT Master Mix, TOYOBO), and quantitative PCR (KAPA SYBR FAST qPCR Master Mix, KAPABIOSYSTEMS) were carried out. As a reference gene, ACT2 (AGI code: AT3G18780) was used. As a result, the relative expression level of DREB2A (AGI code: AT5G05410; SEQ ID NO: 1) and that of HSF3 (AGI code: AT5G16820; SEQ ID NO: 2) were 2.2 times and […] greater than the expression level of the control group, respectively.

The test system of experiment [2] is Arabidopsis thaliana. Description: High temperature stress resistance of Arabidopsis thaliana cultivated in allantoin-containing medium (Experiment 6). The class given is in vivo. To be noted: 10 μM, 100 μM or 1,000 μM allantoin in ½ MS solid medium; 45° C. 105 minutes; grown 1 week. The procedure: The wild-type (WT) line of Arabidopsis thaliana (L.) Heynh., accession Columbia-0 described in Experiment 1 was used.
The ½ MS solid medium described in Experiment 1 (Table 1) was used (10 μM, 100 μM, or 1,000 μM allantoin was further added to the allantoin-supplemented group, allantoin was not added to the allantoin-free group, a deep sterilized petri dish No. 903 VALMARK; Ina-Optika Corporation).
(5) In the petri dish, a circular accommodation part (a plane view) is divided into 2 semicircular compartments by a partition wall extended toward a diametrical direction. The allantoin-free ½ MS solid medium was accommodated in one of the compartments of the petri dish, the allantoin-supplemented ½ MS solid medium was accommodated in another compartment, and 15 seeds were sowed in each compartment (i.e., 30 seeds in total per petri dish) (FIG. 5A).
(8) The resultant was transferred to a culture chamber and cultured therein at 22° C. under long-day conditions (light application for 16 hours under fluorescent light: 0.07 mmol photons […] s^−1) for 7 days. […]
(10) Thereafter, the petri dish was cooled in an incubator at 23° C. for 10 to 15 minutes, and the plants were then allowed to grow again for 1 week under the conditions (8). […] The viability was evaluated on the basis of such phenomenon. […]

The subject of experiment [3] is Brassica chinensis komatsuna. Description: High temperature stress resistance of Brassica chinensis komatsuna via allantoin application (Experiment 3). The class given is in vivo, Brassica chinensis komatsuna (variety: Rakuten). Conditions: 1 mM allantoin 40 ml/pot 6 and 13 days after sowing, 45° C. for 1 hour. The procedure: as §1, with “Brassica chinensis komatsuna” for “onion”, “Rakuten,” for “Neoearth;”, “the center of the pot,” for “3 positions,”, “bat” for “bat,”, “and” for “and the resultant was then”, “sowing.” for “sowing. Germination was observed 5 days after sowing. While leaving 3 plants in each pot (i.e., a plant in each position), other plants were removed therefrom 6 days after sowing.”
Germination was observed 3 days after sowing. While leaving one plant in each pot, other plants were removed therefrom 6 days after sowing. […]
as §2

Experiment [4] deals with creeping bentgrass. The class given is in vivo, creeping bentgrass (variety: 007). To be noted: measured Day 15. The procedure:
(§4) A polypot with 5 cm each side was placed on a balance dish BD-2 (AS ONE Corporation), and 120 ml of joint- and bed-soil for turf grass (TACHIKAWA HEIWA NOUEN CO., LTD.) was then added into the pot. Thereafter, 140 mg of seeds of creeping bentgrass (variety: 007, Power Shop FUJI) was seeded on the soil, and 3 ml of the soil was further added onto the seeds. Thereafter, 10 ml of tap water was supplied to the balance dish. The polypot (together with the balance dish) was placed on a tray, and was then placed in an artificial climate chamber having a temperature of 20° C., a light intensity of 300 μmol/m^2/s, a light period of 16 hours, a dark period of 8 hours, and a humidity of 70%, and thereafter, cultivation was initiated. The day on which cultivation was initiated was defined as Day 0 after sowing. On Day 2 after sowing, 40 ml/pot tap water was applied to all pots. On Day 5 after sowing, germination was confirmed.
On Days 6, 11 and 13 after sowing, tap water (hereinafter referred to as a “water group”) or a 0.5 or 1 mM allantoin aqueous solution (hereinafter referred to as an “allantoin group”) was applied, in an amount of 40 ml/pot, to individual experiment groups. On and after Day 13 after sowing, a difference was found in the growth of turf glasses among individual groups. On Day 15, 20 turf grasses were selected from each pot, and the grass height and fresh weight of each grass were then measured. Based on the measured values, a mean value was calculated.

The test system of experiment [5] is HSF3 (AGI code: AT5G16820). Description: HSF3 gene expression, quantitative PCR, cultivation in allantoin-containing medium (Experiment 5). The format is in vivo, Arabidopsis thaliana. Conditions: 1 mM allantoin in ½ MS solid medium, 14 days, leaves and stems, reference gene ACT2. The procedure: as §3
Experiment [6] deals with Arabidopsis thaliana. To be noted: application of allantoin to Arabidopsis thaliana; cited from earlier work.
A further experiment relates to rice. Conditions: rice seeds immersed in 300 mg/L allantoin solution for 24 hours; cited from earlier work.
Experiment [7] deals with wild-type Arabidopsis thaliana. Conditions: allantoin administered to wild-type Arabidopsis thaliana; cited from earlier work.
Experiment [8] deals with creeping bentgrass. The class given is in vivo, creeping bentgrass (variety: 007). To be noted: 1 mM allantoin 40 ml/pot on Days 7, 10 and 13; measured Day 13 after sowing; mean of 20 grasses per pot. The procedure:
as §4
On Days 7, 10 and 13 after sowing, tap water (hereinafter referred to as a “water group”) or a 1 mM allantoin aqueous solution (hereinafter referred to as an “allantoin group”) was applied, in an amount of 40 ml/pot, to individual experiment groups. […]
On Day 13 after sowing, 20 turf grasses were selected from each pot, and the grass height and fresh weight of each grass were then measured. Based on the measured values, a mean value was calculated. […]

Where [9] appears, read: 0.5 mM allantoin 40 ml/pot on Days 6, 11 and 13.
The mark [10] stands for this setting: 1 mM allantoin 40 ml/pot on Days 6, 11 and 13.

Values joined by “and” are separate entries in the source; they are usually repeats but may differ in a detail not shown here. Equal values may be shown once. Read-outs that look alike come from different tables or passages of the source.

On to `NC(=O)NC1NC(=O)NC1=O` (racemic) [Allantoin], for which the “viability 3 days after the heat shock treatment” value turned out to be 66.7% in the experiment with onion (45° C. for 1 hour), 33.3% with onion (45° C. for 1.5 hours) and 11.1% with onion (45° C. for 2 hours). In addition, in the experiment on onion (1 mM allantoin, 45° C. for 1, 1.5 and 2 hours, compared with 3 days), the “viability 8 days after heat shock treatment” value was “same viability”. Also, the “LAI (Leaf Area Index)” value in the experiment on rice (Koshihikari) (55th day in paddy field) is 1.94 m^2/m^2 and 2.04 m^2/m^2; in the experiment on rice (Koshihikari) (63rd day in paddy field), 2.71 m^2/m^2 and 2.82 m^2/m^2. Further, the “LAI smaller than the LAI of the water group” value was “approximately 25%” in the experiment with rice (Koshihikari) (55th day) and “approximately 10%” in the experiment with rice (Koshihikari) (63rd day). In [1], the “relative expression level of DREB2A versus control group” value stood at 2.2 times. In addition, the “resistance to high temperature stress (viability)” value in the experiment on Arabidopsis thaliana [2] is listed as “has resistance to high temperature stress”. Further, the “viability 7 days after the heat shock treatment” value in experiment [3] stood at 100%. For the same compound, the Fresh weight was determined as 3 mg with creeping bentgrass [4] (setting [9]), 3.1 mg in the experiment with creeping bentgrass [4] (setting [10]) and 2.9 mg in the experiment with creeping bentgrass [8]. Besides, the Grass height was 5.8 cm with creeping bentgrass [4] (setting [9]), 5.9 cm with creeping bentgrass [4] (setting [10]) and 5.6 cm in the experiment on creeping bentgrass [8]. For the same compound, the “relative expression level of HSF3 versus control group” value in experiment [5] is reported as 0.7 times. In the experiment with Arabidopsis thaliana [6], the plant growth result was “promoted”. In addition, in the experiment with rice, the “height of the seedlings, number of roots and fresh weight of the seedlings versus water control” value is “increased”. Moreover, the “production of abscisic acid” value in [7] was “promoted”.

(Values after patent US10182569B2, “Composition comprising allantoin and method of applying allantoin to a plant” (Kaneka Corporation, priority 2016, dated 2019).)
